# Values of other authors in patent EP3733197A1, “ANAEROBIC ANTIOXIDANT COMPOSITION” (Pitcher, Stephen N., priority 2019, dated 2020).
# Key:
# [1] = in vivo
smiles,measurement,setting,value
"CC(=O)N[C@@H](CS)C(=O)O [NAC, N-acetylcysteine]",pregnancy risk,in vivo,category B
same,associated adverse effects,orally administered or inhaled,"drowsiness, stomatitis, clamminess, rhinorrhea, and hemoptysis"
same,half-life,[1],approximately 5.6 hours
same,renally excreted by the body,[1],30%
